pEC50, pIC50: −log10 of the molar value.

Common to all, as to assay type: cell-based, human
The subject of assay [1] is pancreatic cancer cell line MiaPaCa2. Put plainly: Soft agar assay, MiaPaCa2. As to the method:
(§1) Cell proliferation was ascertained by soft agar assay. In brief, cells were grown within a matrix of 1.2% soft agar that contained PAR-1 inhibitor at the appropriate concentration. Plates containing cells in the soft agar were incubated at 37° C. for approximately 2 weeks until cell colonies were visible. Cells were then stained by adding 1 mg/ml MTT in PBS and incubating at 37° C. for 1-2 hours. After which the staining solution was removed and plates incubated at 4° C. for 1-2 hours to resolidify agar before scanning.

The test system of assay [2] is glioma cancer cell line SF295. Put plainly: Soft agar assay, SF295. As for the experimental part: as §1
Assay [3] has as its system pancreatic cancer cell line Panc1. The assay is described as follows: Calcein AM assay, Panc1. The settings on record: 3 days, FIG. 18. As to the method:
(§2) Viability of cells was ascertained using the LIVE/DEAD Viability/Cytotoxicity calcein AM assay [Molecular Probes, technical bulletin MP03224] in the pancreatic cell line MiaPaCa2 and the pancreatic cancer cell line Panc1 following treatment with thrombin, or PAR-1 inhibitor in the presence or absence of thrombin (at a concentration of 10 nM). Calcein AM is a cell-permeant nonflouroescent molecule which is cleaved by esterases found within live cells to create the intensely fluorescent calcein. The polyanionic dye calcein is retained within live cells, producing an intense uniform green fluorescence which can be measured by a fluorescent multiwell plate reader to determine the actual number of live cells in each well. In brief, 1×10^4 cells per well were plated into a 96-well plate and allowed to attach overnight at 37° C. prior to treatment with serum-free media containing 10 nM thrombin as well as the appropriate concentration of PAR-1 inhibitor Formula 2 (5×10^−9; 1×10^−8; 5×10^−8; 1×10^−7; 5×10^−7; 1×10^−6; 5×10^−6; or 1×10^−5 M). Cells were then incubated at 37° C. for 3 days prior to adding Calcein AM reagent and reading fluorescence.

Assay [4] has as its system pancreatic cancer cell line MiaPaCa2. Put plainly: 14C-thymidine incorporation assay, MiaPaCa2. The following applies: 48 hours. As to the method:
(§3) Cell growth proliferation was ascertained by measuring ^14C-thymidine incorporation in various cell lines treated with thrombin in the presence or absence of a PAR-1 inhibitor. In brief, 5×10^3 cells per well were seeded in a 96-well plate and incubated at 37° C. for 1 day. The cells were starved with serum-free medium for 1 day prior to treatment with serum-free media containing 0.5 μCi/ml ^14C-thymidine as well as PAR-1 inhibitor and/or thrombin (where applicable). The cells were then incubated at 37° C. for 48 hours prior to reading radioactivity on a beta counter (1450 Microbeta Plus, Liquid Scintillation Counter (Wallac Software, Perkin Elmer) using the program for ^14C counting on 96-well Cytostar-T scintillating microplate (Amersham Pharmacia Biotech, Piscataway, N.J.).

The test system of assay [5] is ovarian cancer cell line SKOV-3. Put plainly: Intracellular Ca2+ release (FLIPR) assay, SKOV-3. The following applies: thrombin 0.1-100 nM, FIG. 14. As to the method:
(§4) As detailed below, intracellular Ca^2+ release was measured in various tumor cell lines treated with thrombin. Likewise, intracellular Ca^2+ release was measured in a subset of those tumor cell lines treated with thrombin and PAR-1 inhibitor Formula 2. In brief, cells were plated into a 96-well plate at a density of 4×10^4 cells per well and allowed to attach overnight at 37° C. prior to loading with Fluo-4AM. Cells were then incubated at 37° C. for 60 minutes. After washing the cells, thrombin as well as the appropriate concentration of PAR-1 inhibitor Formula 2 was added and cells incubated at 37° C. for 30 minutes prior to taking fluorescence readings.

Assay [6] has as its system glioma cell line T98G. Put plainly: Intracellular Ca2+ release (FLIPR) assay, T98G. The following applies: thrombin 0.1-100 nM, FIG. 14. As to the method: as §4
The test system of assay [7] is pancreatic cell line MiaPaCa2. The assay is described as follows: Calcein AM assay, MiaPaCa2. The settings on record: 3 days, FIG. 18. As to the method:
as §2

Assay [8] concerns glioma cell line U373. Put plainly: 14C-thymidine incorporation assay, U373. The settings on record: thrombin 0.001-1000 nM, 48 hours, FIG. 16. As to the method:
as §3

The test system of assay [9] is glioma cell line U373. The assay is described as follows: Intracellular Ca2+ release (FLIPR) assay, U373. The settings on record: thrombin 0.1-100 nM, FIG. 14. As to the method:
as §4

Assay [10] deals with glioma cell line SF295. The assay is described as follows: Intracellular Ca2+ release (FLIPR) assay, SF295. The following applies: thrombin 0.1-100 nM, FIG. 14. As for the experimental part: as §4
Assay [11] deals with prostate cancer cell line PC-3. The assay is described as follows: Intracellular Ca2+ release (FLIPR) assay, PC-3. The following applies: thrombin 0.1-100 nM, FIG. 14. As for the experimental part:
as §4

Assay [12] relates to pancreatic cancer cell line MiaPaCa2. Put plainly: Intracellular Ca2+ release (FLIPR) assay, MiaPaCa2. The following applies: thrombin 0.1-100 nM, FIG. 14. As for the experimental part: as §4
Assay [13] deals with glioma cell line SNB19. Put plainly: Intracellular Ca2+ release (FLIPR) assay, SNB19. The settings on record: thrombin 0.1-100 nM, FIG. 14. As to the method:
as §4

Assay [14] relates to glioma cell line U118MG. The assay is described as follows: Intracellular Ca2+ release (FLIPR) assay, U118MG. The following applies: thrombin 0.1-100 nM, FIG. 14. As to the method:
as §4

As for `CCOC(=O)N[C@@H]1CC[C@@H]2[C@@H](C1)C[C@H]1C(=O)O[C@H](C)[C@H]1[C@H]2/C=C/c1ccc(-c2ccccc2C#N)cn1` [Formula 3], the “inhibition of cell proliferation (soft agar assay)” value in [1] (0-10,000 nM, dose-dependent manner) is recorded as “inhibited”; in [2] (0-30,000 nM, dose-dependent manner), “inhibited”. Besides, the pIC50 in assay [1] (Homo sapiens, MIA PaCa-2, 336 h, approximately 2 weeks, FIG. 20, read-out: IC50, cell proliferation (soft agar assay)) was 5.28; in assay [2] (Homo sapiens, SF-295, 336 h, approximately 2 weeks, FIG. 21, read-out: IC50, cell proliferation (soft agar assay)), 5.21. Besides, the anti-proliferative effects entry in assay [1] (at higher doses) and in [2] (at higher doses) was “modest” throughout.
For the molecule thrombin, the “thrombin-induced cell proliferation (calcein AM)” value is recorded as “minimal” in [3] and “dose-dependent” in assay [7]. For the same molecule, in assay [4] (read-out: EC50 of thrombin, cell proliferation (14C-thymidine incorporation)), the pEC50 is 10.85. Besides, the “thrombin-induced cell proliferation (14C-thymidine incorporation)” value in assay [4] (thrombin 10^-4 to 10^2 nM, FIG. 17) was “dose-dependent”; in [8] it was “dose-dependent”. Also, the “intracellular Ca2+ release stimulated by thrombin” value in [5], in assay [6], in [9], in assay [10], in assay [11] and in assay [12] was “stimulates” throughout. The “intracellular Ca2+ release stimulated by thrombin” value in assay [13] and in assay [14] was “stimulates” throughout.
